Earlier results, collected in patent US20140080711A1, “SUSPENSION OF PARTICLES COMPRISING CYCLOPROPENE COMPLEXES DISPERSED IN A RESIN MATRIX” (AgroFresh Inc., priority 2012, published 2014).

Test system: ethylene receptors

CC1=CC1 [Sample 1-MCP, 1-methylcyclopropene]
affinity for the receptor relative to that of ethylene: approximately 10 times
